According to US20220098620A1, “NOVEL NUCLEIC ACID MODIFIERS” (THE BROAD INSTITUTE, INC., priority 2019, published 2022):

System: GAPDH locus
Assay: HiBiT sequence knock-in assay (NanoLuc luciferase complementation)
Assay type: cell-based
Excerpt: FIG. 39A-39E—Schematic of the HiBiT assay to check the HDR-mediated knock-in of the 33-nt DNA fragment. (FIG. 39A) General gRNA and ssODN design strategy for HDR-based HiBiT sequence knock-in right before the stop codon of the gene of interest. (FIG. 39B) The knock-in results in the expression of a fusion protein having a C-terminal HiBiT tag, which is a small fragment of the NanoLuc luciferase. When an excess amount of the other fragment of NanoLuc (LgBiT) is supplied, a fully functional NanoLuc is reconstituted. The resulting luminescence signal is proportional to the HDR efficiency. […]
Applicants then designed an ssODN that would insert a 33-nt DNA fragment (HiBiT sequence) at a gene of interest by HDR pathway (FIG. 39A). […] When complemented by LgBiT, the remainder of NanoLuc, the full-length luciferase is reconstituted to generate a luminescence signal proportional to the degree of ssODN incorporation, providing an easy readout for measuring the level of HDR (FIG. 39B). Applicants chose GAPDH as the first target gene (FIG. 39C) owing to its abundant expression in many cell types, which should allow for the reliable detection of the luminescence signal. […] Using the negative control ssODN without the complementary sequence, Applicants determined if appending the DNA adaptor to the cysteine affected Cas9 activity using the HiBiT insertion assay (FIG. 13b). […]

SMILES | HDR enhancement by NHEJ pathway inhibitors in the HiBiT assay
O=c1cc(N2CCOCC2)oc2c(-c3cccc4c3sc3ccccc34)cccc12 [KU-57788] | enhanced HDR enhancement
CCN1CCN(CC(=O)Nc2ccc(-c3cccc4c(=O)cc(N5CCOCC5)oc34)c3sc4ccccc4c23)CC1 [KU-0060648] | enhanced HDR enhancement
